{"source": "patent US7754736B2", "about": "“5-aminoindole derivatives as H3 inverse agonists” (Hoffmann-La Roche Inc., priority 2005, dated 2010)", "note": "Structures can show the parent of a compound that is named as a salt.", "data": [{"molecular_target": "T1, histamine 3 receptor (H3R) (Homo sapiens, UniProt Q9Y5N1)", "T1 construct": "expressed in transfected cells; host or cells: CHO cells", "T1 sequence (Q9Y5N1 whole entry)": "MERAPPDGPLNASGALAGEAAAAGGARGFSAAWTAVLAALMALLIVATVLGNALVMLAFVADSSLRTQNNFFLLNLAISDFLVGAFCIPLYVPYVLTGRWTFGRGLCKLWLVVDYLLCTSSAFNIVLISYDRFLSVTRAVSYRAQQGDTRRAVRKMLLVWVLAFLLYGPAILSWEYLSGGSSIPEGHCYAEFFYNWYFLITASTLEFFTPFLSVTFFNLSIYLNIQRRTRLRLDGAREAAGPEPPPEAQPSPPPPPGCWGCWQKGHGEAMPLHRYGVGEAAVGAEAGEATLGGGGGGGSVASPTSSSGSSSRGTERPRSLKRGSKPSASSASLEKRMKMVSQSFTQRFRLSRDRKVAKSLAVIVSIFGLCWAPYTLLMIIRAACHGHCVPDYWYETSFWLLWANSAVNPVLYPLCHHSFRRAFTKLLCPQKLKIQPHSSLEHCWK", "assay": "Competition binding assay with 3H-(R)α-methylhistamine on membranes of the human HR3-CHO cell line", "conditions": "competition with 3H(R)α-Methylhistamine (1 nM), Ki calculated from IC50 by Cheng-Prusoff equation", "description": "Binding Assay with ^3H-(R)α-methylhistamine Saturation binding experiments were performed using HR3-CHO membranes prepared as described in […]. Pharmacol. Exp. Therapeutics 307, 213-218. An appropriate amount of membrane (60 to 80 μg protein/well) was incubated with increasing concentrations of ^3H(R)α-Methylhistamine di-hydrochloride (0.10 to 10 nM). Non specific binding was determined using a 200 fold excess of cold (R)α-Methylhistamine dihydrobromide (500 nM final concentration). The incubation was carried out at room temperature (in deep-well plates shaking for three hours). The final volume in each well was 250 μl. The incubation was followed by rapid filtration on GF/B filters (pre-soaked with 100 μl of 0.5% PEI in Tris 50 mM shaking at 200 rpm for two hours). The filtration was made using a cell-harvester and the filter plates were then washed five times with ice cold washing buffer containing 0.5 M NaCl. After harvesting, the plates were dried at 55° C. for 60 min, then we added scintillation fluid (Microscint 40, 40 microl in each well) and the amount of radioactivity on the filter was determined in Packard top-counter after shaking the plates for two hours at 200 rpm at room temperature. Binding Buffer: 50 mM Tris-HCl pH 7.4 and 5 mM MgCl2×6H2O pH 7.4. Washing Buffer: 50 mM Tris-HCl pH 7.4 and 5 mM MgCl2×6H2O and 0.5 M NaCl pH 7.4. […] An appropriate amount of protein, e.g. approximately 500 cpm binding of RAMH at Kd, were incubated for 1 hour at room temperature in 250 μl final volume in 96-well plates in presence of ^3H(R)α-Methylhistamine (1 nM final concentration=Kd). Non-specific binding was determined using a 200 fold excess of cold (R)α-Methylhistamine dihydrobromide. All compounds were tested at a single concentration in duplicates. […] Ki's were calculated from IC50 based on Cheng-Prusoff equation (Cheng, Y, Prusoff, W H (1973) Biochem Pharmacol 22, 3099-3108).", "units": {"Ki": "nM"}, "values": [{"smiles": "CC(C)N1CCC(Nc2ccc3[nH]c(C(=O)N4CCOCC4)cc3c2)C1", "note": "(stereo not drawn) [Example 11, [5-(1-isopropyl-pyrrolidin-3-ylamino)-1H-indol-2-yl]-morpholin-4-yl-methanone bis-hydrochloride]", "Ki": 256}, {"smiles": "CC(C)N1CCC(Nc2ccc3[nH]c(C(=O)N4CCOCC4)cc3c2)CC1", "note": "[Example 3, [5-(1-isopropyl-piperidin-4-ylamino)-1H-indol-2-yl]-morpholin-4-yl-methanone]", "Ki": 47.5}, {"smiles": "CC(C)N1CCC(Oc2ccc3[nH]c(C(=O)N(C)C(C)C)cc3c2)CC1", "note": "[Example 19, 5-(1-isopropyl-piperidin-4-yloxy)-1H-indole-2-carboxylic acid isopropyl-methyl-amide]", "Ki": 66}]}]}
